Columns and labels:
[1] = system: rabbits; assay: Immunization of rabbits with ova-conjugated peptides; format: in vivo, New Zealand White rabbit; settings: peptides conjugated onto ovalbumin, sera after 3 rounds of immunization
Text: An overlapping peptide library spanning the entire length HCMV gO polypeptide from strain TR was obtained from Genscript Biotech, Piscataway, NJ. The peptides consisted of 20 amino acids in length with 7 amino acid overlap and a biotin moiety conjugated to the C-terminus. A panel of 8 a.a. peptides overlapping by 7 a.a. and a biotin moiety conjugated to the C-terminus that were derived from the protein sequences: 248-[…]-267 or 326-[…]-345 (S2 Table) were also obtained from Genscript Biotech. Peptides derived from the gO polypeptide sequence 235-[…]-267 (peptide 19/20 from overlapping library) and 326-[…]-345 (peptide 26 from overlapping library) were synthesized conjugated onto ovalbumin (ova). These ova-peptides were used to produce New Zealand White rabbit polyclonal sera by priming rabbits with ova-peptides in Freund’s adjuvant then boosting the rabbits with ova-peptides in TiterMax Gold adjuvant (Sigma, St. Louis, MO). Rabbit antibodies specific for peptide 20, 26 and ovalbumin were purified using peptides ova-20 and ova-26 or ova (without peptides) by coupling these proteins to AminoLink (Thermo Scientific).

[2] = system: Abs present in HCMV seropositive human serum; assay: ELISA of biotinylated gO peptides with pooled human transplant sera; format: binding; settings: biotin peptides 0.5 mM on streptavidin plates, pool of 5 sera diluted to NT100
Procedure: Fig 5 gO peptides recognized by Abs present in HCMV seropositive human serum. The panel of gO peptides with C-terminal biotin tags were incubated in the wells of streptavidin-coated ELISA plates. The wells were washed and then incubated with a pool of 5 different human sera from transplant patients that had been diluted to the NT100 titers. The plates were washed and incubated with goat-anti human-IgG-HRP for 1 h at room temperature, washed, and incubated with Turbo-TMB substrate. Control conditions included no peptide plus human sera (red bar) and wells coated with soluble trimer (instead of peptides) and human sera (green bar). The absorbance values are indicated on the y-axis and the numbers of the individual gO peptides are indicated on the x-axis.
For cell-based ELISA assays, ARPE-19 epithelial or fibroblast cells in 96-well plates were fixed with 4% paraformaldehyde, washed with PBS supplemented with 0.1M glycine pH.7.2, then washed with PBS plus 2% BSA and incubated with soluble trimers or gH/gL complexes at 10 μg/ml (or 20 μg/ml in the case of gO-417) in PBS with 2% BSA at room temperature for 1 h. […] The colorometric reaction was stopped by adding 100 μl of 1M sulfuric acid to the wells and then the substrate development was read in a Molecular Dynamics precision plate reader at a wavelength of 450 nm.

[3] = system: neutralizing Abs from human serum; assay: Depletion of neutralizing Abs from human sera, read out by HCMV neutralization on ARPE-19; format: cell-based
Procedure: Fig 7 gO peptides 20 and 26 deplete neutralizing Abs from human serum. (A) Pooled HCMV seropositive serum was diluted to (NT100) titers then incubated with either no protein, 1μg of soluble trimer, or gO peptides (with biotin): 20, 26, 32 or 33 (each at 0.5 mM) for 1 h at 37°C. […] The trimer was removed using nickel-agarose and peptides removed using streptavidin-agarose. The remaining Abs were tested in neutralization assays involving HCMV (BADrUL131) and ARPE-19 epithelial cells. The relative infectivity of HCMV after incubation with these sera was determined by counting GFP+ (infected) cells after 24 h of infection and compared to the numbers of infected cells following incubation of HCMV with similarly diluted sera from HCMV seronegative donors (sero-neg) Data was collected from three separate wells for each condition. (B and C) Two panels of 8 a.a. peptides with 7 a.a. overlap were derived from peptide 20 (B) or peptide 26 (C). These peptides were tested in depletion assays as in panel A. The relative infectivity of HCMV (BADrUL131) on ARPE-19 epithelial cells was determined and normalized to the level of HCMV infectivity with depletions performed with soluble trimer. Data was collected from a randomly selected field of the same surface area from each well.
These sera were then tested in HCMV neutralization assays as described above.

| Sequence | induction of gO-specific NAbs in rabbits [1] | binding of IgG from human transplant sera [2] | HCMV infectivity with sera after depletion ([3]; pooled human transplant sera at NT100, 1 μg soluble trimer or 0.5 mM biotin peptide, 1 h 37°C, relative to seronegative sera, three wells) | depletion of NAbs from human sera ([3]; pooled sera at NT100, 0.5 mM biotin peptide) |
| --- | --- | --- | --- | --- |
| FRVPKYINGTKLKNTMRKLKRKQAPVKEQSEKK [Peptide 19/20, peptide containing all of peptides 19 and 20 (a.a. 235-267), conjugated onto ovalbumin] | able to induce gO-specific NAbs | – | – | – |
| LRDLATWVYTTLRYRQNPFC [Peptide 26, gO (TR) a.a; 326-345, C-terminal biotin; also ova-conjugated for immunization] | able to induce gO-specific NAbs | binding higher quantities of IgG compared with other peptides | 45% | – |
| TTTPYSPYTTSTALNVTTNA [Peptide 22, gO (TR) a.a; 274-293, C-terminal biotin; negative control in depletion] | – | did not bind substantial IgG | – | retained complete neutralizing capacity |

Source: publication PMC9032346, “Identification of functionally important domains of human cytomegalovirus gO that act after trimer binding to receptors” (PLoS Pathogens, 2022)
